Results as given in patent US20230265151A1, “GIP/GLP1 CO-AGONIST COMPOUNDS” (priority 2020, published 2023).
Read-outs that look alike come from different tables or passages of the source. *1 amine or outer side, *2 acyl side, *3 side chain or, on linkers, in order; H or OH if unused. Where a SMILES comes first, the peptide text is derived from it. Side-chain parts run from the residue outwards. [ ]: non-standard residue; d: D form. The star is where a group is joined. αMePhe(2-F) = C[C@](N)(Cc1ccccc1F)C(=O)O; γGlu = O=C(O)[C@H](CCC(=O)[*:2])N[*:1]; αMeY = C[C@](N)(Cc1ccc(O)cc1)C(=O)O; αMeF = C[C@](N)(Cc1ccccc1)C(=O)O; 4Pal = N[C@@H](Cc1ccncc1)C(=O)O; αMeL = CC(C)C[C@](C)(N)C(=O)O; Lauroyl = CCCCCCCCCCCC(=O)*; Orn = NCCC[C@H](N)C(=O)O; AEEA = NCCOCCOCC(=O)O; Aib = CC(C)(N)C(=O)O

How the values were obtained:
Type in all cases: cell-based
[1] = molecular target: T1, hGIPR (Homo sapiens, UniProt P48546); experiment: Functional cAMP formation (HTRF) in HEK-293 clonal cells expressing hGIPR, 0.1% bovine casein, without or with 1.0% human serum albumin; settings: for EC50: geometric mean
T1 construct: expressed in transfected cells
T1 sequence (P48546 22-466): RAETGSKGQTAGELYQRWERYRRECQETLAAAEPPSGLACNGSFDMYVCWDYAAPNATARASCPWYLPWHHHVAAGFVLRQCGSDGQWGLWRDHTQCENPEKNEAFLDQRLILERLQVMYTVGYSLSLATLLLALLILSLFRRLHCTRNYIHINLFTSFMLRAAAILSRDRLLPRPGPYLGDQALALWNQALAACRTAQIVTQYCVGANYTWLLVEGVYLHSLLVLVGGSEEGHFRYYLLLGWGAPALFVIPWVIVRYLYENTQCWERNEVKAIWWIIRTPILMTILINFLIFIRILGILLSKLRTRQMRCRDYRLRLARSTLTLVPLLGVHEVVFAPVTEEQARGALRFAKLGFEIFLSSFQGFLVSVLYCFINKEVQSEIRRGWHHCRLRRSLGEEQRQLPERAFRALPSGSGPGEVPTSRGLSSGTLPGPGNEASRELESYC
Procedure, shortened: (§1)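 Cells were stimulated with peptide for 30 min at 37° C, then lysed in buffer carrying cAMP-d2 and anti-cAMP Eu3+-cryptate for a competitive HTRF read after at least 60 min at room temperature. The 665/620 nm ratio was converted to nM cAMP against a standard curve.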

[2] = molecular target: T2, hGCGR (Homo sapiens, UniProt P47871); experiment: Functional cAMP formation (HTRF) in HEK-293 clonal cells expressing hGCGR, 0.1% bovine casein, without or with 1.0% human serum albumin
T2 construct: expressed in transfected cells
T2 sequence (P47871 26-477): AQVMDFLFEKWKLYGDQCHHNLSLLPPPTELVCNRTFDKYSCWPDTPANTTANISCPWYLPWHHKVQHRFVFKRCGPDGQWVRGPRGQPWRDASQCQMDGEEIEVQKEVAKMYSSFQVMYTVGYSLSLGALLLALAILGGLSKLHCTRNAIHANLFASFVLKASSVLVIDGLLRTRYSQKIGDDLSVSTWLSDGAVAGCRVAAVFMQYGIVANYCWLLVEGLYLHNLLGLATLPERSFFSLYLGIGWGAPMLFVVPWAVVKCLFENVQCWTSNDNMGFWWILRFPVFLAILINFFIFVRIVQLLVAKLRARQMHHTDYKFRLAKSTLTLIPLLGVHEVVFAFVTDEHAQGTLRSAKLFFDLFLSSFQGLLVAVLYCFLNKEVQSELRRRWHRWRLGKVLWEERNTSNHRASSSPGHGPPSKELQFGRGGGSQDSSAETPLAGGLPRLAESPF
Procedure, shortened: as §1

[3] = molecular target: hGLP-1R (Homo sapiens, UniProt P43220); experiment: Functional cAMP formation (HTRF) in HEK-293 clonal cells expressing hGLP-1R, 0.1% bovine casein, without or with 1.0% human serum albumin; parameters: expressed in transfected cells; settings: for Emax: percent of maximal response to GLP-1(7-36)NH2; for EC50: cAMP
Sequence of hGLP-1R (P43220 24-463): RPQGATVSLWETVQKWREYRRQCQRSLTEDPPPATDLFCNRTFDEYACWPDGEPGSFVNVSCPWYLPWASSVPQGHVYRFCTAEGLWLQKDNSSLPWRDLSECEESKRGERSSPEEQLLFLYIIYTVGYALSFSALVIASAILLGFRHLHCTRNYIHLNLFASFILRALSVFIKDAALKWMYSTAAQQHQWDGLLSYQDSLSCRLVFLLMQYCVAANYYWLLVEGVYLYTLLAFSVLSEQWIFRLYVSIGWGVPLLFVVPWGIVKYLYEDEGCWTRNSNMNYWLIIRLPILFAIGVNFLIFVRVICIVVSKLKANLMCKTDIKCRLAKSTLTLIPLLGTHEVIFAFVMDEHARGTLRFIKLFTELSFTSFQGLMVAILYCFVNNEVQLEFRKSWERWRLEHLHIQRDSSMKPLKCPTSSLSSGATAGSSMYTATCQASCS
Procedure, shortened: as §1

[4] = HEK293, read-out: hGIPR Emax, % ± SEM, 0.1% bovine casein and 1.0% human serum albumin, 37° C., percent of maximal response to GIP(1-42)NH2
[5] = HEK293, read-out: hGIPR Emax, % ± SEM, cAMP, 37° C., 0.1% bovine casein, percent of maximal response to GIP(1-42)NH2, arithmetic mean
[6] = hGIPR EC50, nM (SEM, n), cAMP, 37° C., 0.1% bovine casein (no human serum albumin)
[7] = hGCGR EC50, nM (SEM, n), 0.1% bovine casein and 1.0% human serum albumin, 37° C., geometric mean
[8] = hGCGR EC50, nM (SEM, n), cAMP, 37° C., 0.1% bovine casein (no human serum albumin), geometric mean
[9] = HEK293, read-out: hGLP-1R Emax, % ± SEM, 0.1% bovine casein and 1.0% human serum albumin, 37° C.
[10] = hGLP-1R EC50, nM (SEM, n), 37° C., 0.1% bovine casein (no human serum albumin), geometric mean

SMILES | Emax [1, 4] [%] | Emax [1, 5] [%] | EC50 [1, 6] [nM] | EC50 [2, 7] [nM] | EC50 [2, 8] [nM] | Emax [3, 9] [%] | EC50 [3, 10] [nM] | other results
CCCCCCCCCCCC(=O)N[C@@H](CCC(=O)NCCOCCOCC(=O)NCCOCCOCC(=O)NCCOCCOCC(=O)NCCCC[C@H](NC(=O)[C@H](CCCN)NC(=O)[C@H](CC(=O)O)NC(=O)[C@H](CC(C)C)NC(=O)[C@](C)(CC(C)C)NC(=O)[C@@H](NC(=O)C(C)(C)NC(=O)[C@H](Cc1ccncc1)NC(=O)[C@H](CC(=O)O)NC(=O)[C@H](CO)NC(=O)[C@@H](NC(=O)[C@](C)(Cc1ccccc1F)NC(=O)[C@@H](NC(=O)CNC(=O)[C@H](CCC(=O)O)NC(=O)C(C)(C)NC(=O)[C@@H](N)Cc1ccc(O)cc1)[C@@H](C)O)[C@@H](C)O)[C@@H](C)CC)C(=O)N[C@@H](C)C(=O)N[C@@H](CCC(N)=O)C(=O)NC(C)(C)C(=O)N[C@@H](CCC(=O)O)C(=O)N[C@@](C)(Cc1ccccc1)C(=O)N[C@H](C(=O)N[C@H](CCC(=O)O)C(=O)N[C@@](C)(Cc1ccc(O)cc1)C(=O)N[C@@H](CC(C)C)C(=O)N[C@H](C(=O)N[C@@H](CCCCNC(=O)COCCOCCNC(=O)COCCOCCNC(=O)COCCOCCNC(=O)CC[C@H](NC(=O)CCCCCCCCCCC)C(=O)O)C(=O)NCC(=O)NCC(=O)N1CCC[C@H]1C(=O)N[C@@H](CO)C(=O)N[C@@H](CO)C(=O)NCC(=O)N[C@@H](C)C(=O)N1CCC[C@H]1C(=O)N1CCC[C@H]1C(=O)N1CCC[C@H]1C(=O)N[C@@H](CO)C(N)=O)[C@@H](C)CC)[C@@H](C)CC)C(=O)O [Example 438] (H-Y[Aib]EGT[αMePhe(2-F)]TSD[4Pal][Aib]I[αMeL]LD[Orn]K([AEEA-AEEA-AEEA-γGlu-Lauroyl])AQ[Aib]E[αMeF]I[dE][αMeY]LIK([AEEA-AEEA-AEEA-γGlu-Lauroyl])GGPSSGAPPPS-NH2) |  |  |  |  |  |  |  | Emax ([1]; HEK293, cAMP, 37° C., 0.1% bovine casein and 1.0% human serum albumin, percent of maximal response to GIP(1-42)NH2, read-out: hGIPR Emax, % ± SEM): 90.8%; Emax ([1]; HEK293, cAMP, 37° C., 0.1% bovine casein, percent of maximal response to GIP(1-42)NH2, arithmetic mean, read-out: hGIPR Emax, % ± SEM): 98.9%; EC50 ([1]; cAMP, 37° C., 0.1% bovine casein (no human serum albumin), read-out: hGIPR EC50, nM (SEM, n)): 0.0157 nM; EC50 ([2]; cAMP, 37° C., 0.1% bovine casein (no human serum albumin), geometric mean, read-out: hGCGR EC50, nM (SEM, n)): > 9950 nM; EC50 ([2]; cAMP, 37° C., 0.1% bovine casein and 1.0% human serum albumin, geometric mean (SEM, n), read-out: hGCGR EC50, nM (SEM, n)): > 9950 nM; Emax ([3]; HEK293, cAMP, 37° C., 0.1% bovine casein and 1.0% human serum albumin, read-out: hGLP-1R Emax, % ± SEM): 88.7%; Emax ([3]; HEK293, cAMP, 37° C., 0.1% bovine casein, arithmetic mean, read-out: hGLP-1R Emax, % ± SEM): 88.5%; EC50 ([3]; 37° C., 0.1% bovine casein (no human serum albumin), geometric mean, read-out: hGLP-1R EC50, nM (SEM, n)): 0.471 nM; EC50 ([3]; 37° C., 0.1% bovine casein and 1.0% human serum albumin, geometric mean (SEM, n), read-out: hGLP-1R EC50, nM (SEM, n)): 28 nM
CC[C@H](C)[C@H](NC(=O)[C@H](CC(C)C)NC(=O)[C@](C)(Cc1ccc(O)cc1)NC(=O)[C@@H](CCC(=O)O)NC(=O)[C@@H](NC(=O)[C@H](Cc1ccccc1)NC(=O)[C@H](CCC(=O)O)NC(=O)C(C)(C)NC(=O)[C@H](CCC(N)=O)NC(=O)[C@H](C)NC(=O)[C@H](CCCCNC(=O)COCCOCCNC(=O)COCCOCCNC(=O)CC[C@H](NC(=O)CCCCCCCOc1ccc(C(=O)O)cc1)C(=O)O)NC(=O)[C@H](CCCN)NC(=O)[C@H](CC(=O)O)NC(=O)[C@H](CC(C)C)NC(=O)[C@](C)(CC(C)C)NC(=O)[C@@H](NC(=O)[C@H](CO)NC(=O)[C@H](Cc1ccncc1)NC(=O)[C@H](CC(=O)O)NC(=O)[C@H](CO)NC(=O)[C@@H](NC(=O)[C@](C)(Cc1ccccc1F)NC(=O)[C@@H](NC(=O)CNC(=O)[C@H](CCC(=O)O)NC(=O)C(C)(C)NC(=O)[C@@H](N)Cc1ccc(O)cc1)[C@@H](C)O)[C@@H](C)O)[C@@H](C)CC)[C@@H](C)CC)C(=O)N[C@@H](CCC(=O)O)C(=O)NCC(=O)NCC(=O)N[C@@H](CCCCNC(=O)COCCOCCNC(=O)COCCOCCNC(=O)CC[C@H](NC(=O)CCCCCCCOc1ccc(C(=O)O)cc1)C(=O)O)C(=O)N[C@@H](CO)C(=O)N[C@@H](CO)C(=O)NCC(=O)N[C@@H](C)C(=O)N1CCC[C@H]1C(=O)N1CCC[C@H]1C(=O)N1CCC[C@H]1C(=O)N[C@@H](CO)C(N)=O [Example 126] |  |  |  |  |  |  |  | Emax ([1]; HEK293, read-out: hGIPR Emax, % ± SEM, percent of maximal response to GIP(1-42)NH2, 37° C., 0.1% bovine casein, arithmetic mean): 91.8%; EC50 ([2]; hGCGR EC50, nM (SEM, n), cAMP, incubated at 37° C., 0.1% bovine casein (no human serum albumin), geometric mean): > 9950 nM; EC50 ([3]; hGLP-1R EC50, nM (SEM, n), incubated at 37° C., 0.1% bovine casein (no human serum albumin), geometric mean): 1.69 nM
CC[C@H](C)[C@H](NC(=O)[C@H](CC(C)C)NC(=O)[C@](C)(Cc1ccc(O)cc1)NC(=O)[C@@H](CCC(=O)O)NC(=O)[C@@H](NC(=O)[C@H](Cc1ccccc1)NC(=O)[C@H](CCCCNC(=O)COCCOCCNC(=O)COCCOCCNC(=O)CC[C@H](NC(=O)CCCCCCCCCOc1ccc(C(=O)O)cc1)C(=O)O)NC(=O)C(C)(C)NC(=O)[C@H](CCC(N)=O)NC(=O)[C@H](C)NC(=O)[C@H](CCCCNC(=O)COCCOCCNC(=O)COCCOCCNC(=O)CC[C@H](NC(=O)CCCCCCCCCOc1ccc(C(=O)O)cc1)C(=O)O)NC(=O)[C@H](CCCN)NC(=O)[C@H](CC(=O)O)NC(=O)[C@H](CC(C)C)NC(=O)[C@](C)(CC(C)C)NC(=O)[C@@H](NC(=O)C(C)(C)NC(=O)[C@@H](NC(=O)[C@H](CC(=O)O)NC(=O)[C@H](CO)NC(=O)[C@@H](NC(=O)[C@](C)(Cc1ccccc1F)NC(=O)[C@@H](NC(=O)CNC(=O)[C@H](CCC(=O)O)NC(=O)C(C)(C)NC(=O)[C@@H](N)Cc1ccc(O)cc1)[C@@H](C)O)[C@@H](C)O)C(C)C)[C@@H](C)CC)[C@@H](C)CC)C(=O)N[C@@H](CCC(=O)O)C(=O)NCC(=O)NCC(=O)N1CCC[C@H]1C(=O)N[C@@H](CO)C(=O)N[C@@H](CO)C(=O)NCC(=O)N[C@@H](C)C(=O)N1CCC[C@H]1C(=O)N1CCC[C@H]1C(=O)N1CCC[C@H]1C(=O)N[C@@H](CO)C(N)=O [Example 319] | 92.5 | 98.1 | 0.0196 | > 9950 | > 9950 | 114 | 0.18 | Emax ([3]; HEK293, read-out: hGLP-1R Emax, % ± SEM, cAMP, 37° C., 0.1% bovine casein, arithmetic mean): 100%
CC[C@H](C)[C@H](NC(=O)[C@H](CCCN)NC(=O)[C@H](CC(=O)O)NC(=O)[C@H](CC(C)C)NC(=O)[C@](C)(CC(C)C)NC(=O)[C@@H](NC(=O)[C@](C)(CO)NC(=O)[C@H](Cc1ccc(O)cc1)NC(=O)[C@H](CC(=O)O)NC(=O)[C@H](CO)NC(=O)[C@@H](NC(=O)[C@](C)(Cc1ccccc1F)NC(=O)[C@@H](NC(=O)CNC(=O)[C@H](CCC(=O)O)NC(=O)C(C)(C)NC(=O)[C@@H](N)Cc1ccc(O)cc1)[C@@H](C)O)[C@@H](C)O)[C@@H](C)CC)C(=O)N[C@@H](C)C(=O)N[C@@H](CCC(N)=O)C(=O)NC(C)(C)C(=O)N[C@@H](CCC(=O)O)C(=O)N[C@@H](Cc1ccccc1)C(=O)N[C@H](C(=O)N[C@@H](CCCCNC(=O)COCCOCCNC(=O)COCCOCCNC(=O)CC[C@H](NC(=O)CCCCCCCCCOc1ccc(C(=O)O)cc1)C(=O)O)C(=O)N[C@@](C)(Cc1ccc(O)cc1)C(=O)N[C@@H](CC(C)C)C(=O)N[C@H](C(=O)N[C@@H](CCCCNC(=O)COCCOCCNC(=O)COCCOCCNC(=O)CC[C@H](NC(=O)CCCCCCCCCOc1ccc(C(=O)O)cc1)C(=O)O)C(=O)NCC(=O)NCC(=O)N1CCC[C@H]1C(=O)N[C@@H](CO)C(=O)N[C@@H](CO)C(=O)NCC(=O)N[C@@H](C)C(=O)N1CCC[C@H]1C(=O)N1CCC[C@H]1C(=O)N1CCC[C@H]1C(=O)N[C@@H](CO)C(N)=O)[C@@H](C)CC)[C@@H](C)CC [Example 307] | 81.8 | 105 | 0.0292 | > 9950 | > 9950 | 109 | 0.376 | EC50 ([1]; hGIPR EC50, nM (SEM, n), 0.1% bovine casein and 1.0% human serum albumin, 37° C.): 1.66 nM
